Reference: publication PMC6356585 (Viruses, 2018)
Counter-ions that a name gives are not always drawn. Like-named read-outs stand apart in the source and are kept apart here. Residues, ends and D or L forms follow the SMILES beside them. *: point of attachment. Cbz = O=C(OCc1ccccc1)*

Experiments:
ZIKV SPH [1] = assay: Autophagy compound library screen, ZIKV SPH titer (TCID50) in Vero cells; type: cell-based, Zika virus; details: for activity at 10 µM: Zika virus, Vero, read-out: ZIKV SPH Relative Titer in Vero Cells
Vero cells = assay: Cell viability (CellTiter-Glo) of Vero cells; type: cell-based
ZIKV SPH [2] = assay: Autophagy compound library screen, ZIKV SPH titer (TCID50) in C6/36 cells; type: cell-based, Zika virus; details: for activity at 10 µM: Zika virus, read-out: ZIKV SPH Relative Titer in C6/36 Cells
C6/36 cells = type: cell-based, Ae. albopictus
[3] = 10 µM compound, MOI 0.1, 40 h, TCID50, ± SEM, three independent trials
[4] = 10 µM compound, 40 h, CellTiter-Glo, ± SEM, three independent trials
[5] = 10 µM compound, MOI 0.1, 96 h, TCID50, ± SEM, three independent trials
[6] = 10 µM compound, 96 h, CellTiter-Glo, ± SEM, three independent trials
[7] = C6/36, 10 µM compound, MOI 0.1, 96 h, TCID50, ± SEM, three independent trials

Compound | ZIKV SPH Relative Titer in Vero Cells (ZIKV SPH [1]; [3]) | Vero Viability (Vero cells; [4]) | ZIKV SPH Relative Titer in C6/36 Cells (ZIKV SPH [2]; [5]) | C6/36 Viability (C6/36 cells; [6]) | activity at 10 µM (ZIKV SPH [1]; [3]) [%] | Vero Viability (Vero cells; 10 µM) | activity at 10 µM (ZIKV SPH [2]; [7]) [%] | C6/36 Viability (C6/36 cells; 10 µM) | activity at 10 µM (ZIKV SPH [1]; 40 h) [%] | activity at 10 µM (ZIKV SPH [2]; C6/36, 96 h) [%]
O=S(=O)(F)Cc1ccccc1 [PMSF] | 89.0 ± 7% of untreated control | 98.3 ± 2% of untreated control | 258.0 ± 145.2% of untreated control | 81 ± 6.4% of untreated control | – | – | – | – | – | –
C=CCNC1=C2C[C@@H](C)C[C@H](OC)[C@H](O)[C@@H](C)/C=C(\C)[C@H](OC(N)=O)[C@@H](OC)/C=C\C=C(/C)C(=O)NC(=CC1=O)C2=O [Compound 17-AAG, 17-AAG] | 36.4 ± 20.8% of untreated control | – | 18.2 ± 11.2% of untreated control | 79 ± 16.4% of untreated control | – | – | – | – | – | –
COc1cc([C@@H]2c3cc4c(cc3[C@@H](O[C@@H]3O[C@@H]5CO[C@@H](C)O[C@H]5[C@H](O)[C@H]3O)[C@H]3COC(=O)[C@H]23)OCO4)cc(OC)c1O [Etoposide] | – | – | – | 119 ± 12.5% of untreated control | 134 ± 34.3 | 84.0 ± 3.6% of untreated control | 737 ± 89.3 | – | – | –
Cc1ccc(C(=O)Nc2ccc(S(=O)(=O)[O-])c3cc(S(=O)(=O)[O-])cc(S(=O)(=O)[O-])c23)cc1NC(=O)c1cccc(NC(=O)Nc2cccc(C(=O)Nc3cc(C(=O)Nc4ccc(S(=O)(=O)[O-])c5cc(S(=O)(=O)[O-])cc(S(=O)(=O)[O-])c45)ccc3C)c2)c1.[Na+].[Na+].[Na+].[Na+].[Na+].[Na+] [Suramin·6Na] | 107.4 ± 44.8% of untreated control | – | 86.6 ± 23.2% of untreated control | 86 ± 8.4% of untreated control | – | 92.0 ± 1.2% of untreated control | – | – | – | –
CNC(=O)c1cc(Oc2ccc(NC(=O)Nc3ccc(Cl)c(C(F)(F)F)c3)cc2)ccn1 [Sorafenib tosylate] | – | 58.3 ± 9.9% of untreated control | – | 23 ± 8.8% of untreated control | 5.8 ± 1.8 | – | 9.4 ± 8.8 | – | – | –
COc1cccc(-c2cc(=O)c3ccccc3o2)c1N [PD-98059] | 101.0 ± 23.3% of untreated control | 90.7 ± 1.3% of untreated control | 197.3 ± 40% of untreated control | 93 ± 8.4% of untreated control | – | – | – | – | – | –
COC(=O)Nc1nc2ccc(C(=O)c3cccs3)cc2[nH]1 [Nocodazole] | – | – | – | – | 28.4 ± 23.9 | 56.0 ± 9.6% of untreated control | 182 ± 39.5 | 58 ± 2.9% of untreated control | – | –
CN(C)C(=O)C(CCN1CCC(O)(c2ccc(Cl)cc2)CC1)(c1ccccc1)c1ccccc1 [Loperamide HCl] | – | 66.7 ± 17.4% of untreated control | – | 12 ± 6.1% of untreated control | 11.7 ± 3.3 | – | 0.1 ± 0.1 | – | – | –
COC[C@H]1OC(=O)c2coc3c2[C@@]1(C)C1=C(C3=O)[C@@H]2CCC(=O)[C@@]2(C)C[C@H]1OC(C)=O [Wortmannin] | – | 79.0 ± 3.1% of untreated control | – | – | – | – | – | 105 ± 5.5% of untreated control | 46.9 ± 9 | 190 ± 57.8
O[C@@H](CS)[C@@H](O)CS [DTT] | 60.2 ± 20.1% of untreated control | 93.0 ± 1.5% of untreated control | 145.7 ± 16.6% of untreated control | 79 ± 4.4% of untreated control | – | – | – | – | – | –
Nc1ncnc2c1nc(Sc1ccc(Cl)cc1)n2[C@@H]1O[C@@H]2COP(=O)([O-])O[C@H]2[C@H]1O.[Na+] [8-CPT-cAMP·Na] | 107.8 ± 65.3% of untreated control | 92.7 ± 0.7% of untreated control | 60.1 ± 18.3% of untreated control | 75 ± 3.7% of untreated control | – | – | – | – | – | –
COC(=O)C1=C(C)NC(C)=C(C(=O)OCCCN2CCC(c3ccccc3)(c3ccccc3)CC2)[C@H]1c1cccc([N+](=O)[O-])c1 [Niguldipine] | – | – | – | – | – | 30.0 ± 14.2% of untreated control | – | 5 ± 2.1% of untreated control | 0.2 ± 0.1 | 0
CNc1ccc2oc(C[C@H]3O[C@@]4(CC[C@H]3C)O[C@H]([C@H](C)C(=O)c3ccc[nH]3)[C@H](C)C[C@H]4C)nc2c1C(=O)O [Compound A23187, A23187] | 0.5 ± 0.5% of untreated control | 17.0 ± 6.7% of untreated control | 0.0 ± 0% of untreated control | 1 ± 0% of untreated control | – | – | – | – | – | –
C=CCNc1ncnc2ccc(Br)cc12 [SMER28] | 65.0 ± 5.6% of untreated control | 92.7 ± 3.5% of untreated control | 38.7 ± 12.2% of untreated control | 36 ± 5.3% of untreated control | – | – | – | – | – | –
C[C@H](CCC(=O)O)C[C@H](C)C[C@H](C)C(=O)/C=C(\O)[C@H](C)C[C@H](C)C/C=C/[C@@H](C)[C@@H](O)[C@@H](C)[C@@H](O)C[C@@H]1CC[C@@](C)([C@H]2CC[C@@](C)([C@@H](C)O)O2)O1 [Ionomycin] | – | 27.7 ± 10.4% of untreated control | – | 1 ± 0.3% of untreated control | 0 | – | 0 | – | – | –
Cl.O=C(NCc1ccncc1)C12CC3C[C@H](C1)CC(c1ccc(Cl)cc1)(C3)C2 [ABC294640·HCl] | 51.7 ± 29.2% of untreated control | – | 26.0 ± 10.8% of untreated control | 32 ± 3.5% of untreated control | – | 87.7 ± 6.8% of untreated control | – | – | – | –
OC[C@H]1O[C@H](O[C@H]2O[C@H](CO)[C@@H](O)[C@H](O)[C@H]2O)[C@H](O)[C@@H](O)[C@@H]1O [Trehalose] | not able to reduce ZIKV titers | – | not able to reduce ZIKV titers | – | – | 97.7 ± 1.5% of untreated control | 246 ± 101 | 99 ± 2.9% of untreated control | – | –
[Cl-].[Li+] [Lithium Chloride] | 85.4 ± 18.7% of untreated control | 87.0 ± 1% of untreated control | 167.9 ± 68.4% of untreated control | 111 ± 10.7% of untreated control | – | – | – | – | – | –
N#CC(C#N)=C(N)/C(C#N)=C/c1ccc(O)cc1 [AG112] | 77.7 ± 38.2% of untreated control | 96.7 ± 3.7% of untreated control | 85.5 ± 21.3% of untreated control | 80 ± 5.8% of untreated control | – | – | – | – | – | –
O=C1NCN(c2ccccc2)C12CCN(CCCC(c1ccc(F)cc1)c1ccc(F)cc1)CC2 [Fluspirilene] | – | – | – | 26 ± 10.3% of untreated control | 2.5 ± 0.6 | 56.7 ± 16% of untreated control | 1 ± 0.7 | – | – | –
Cc1cccc(Nc2nc(-c3ccncc3)cs2)c1 [STF-62247] | 45.0 ± 21.4% of untreated control | 77.3 ± 11.7% of untreated control | 169.8 ± 45.9% of untreated control | 49 ± 9.3% of untreated control | – | – | – | – | – | –
CCCC(=O)Nc1ncnc2c1ncn2[C@@H]1O[C@@H]2COP(=O)([O-])O[C@H]2[C@H]1OC(=O)CCC.[Na+] [Dibutyryl cAMP·Na] | 60.6 ± 36.7% of untreated control | – | 142.6 ± 63.9% of untreated control | 117 ± 10.7% of untreated control | – | 98.3 ± 4.4% of untreated control | – | – | – | –
Penitrem A | 34.9 ± 10.4% of untreated control | – | 29.8 ± 6.4% of untreated control | – | – | – | – | – | – | –
Cn1cnc(N)c2ncnc1-2 [3-Methyladenine] | – | – | – | 120 ± 15.6% of untreated control | – | 90.7 ± 1.8% of untreated control | 155 ± 41 | – | – | –
CC1=CC(=O)c2c(O)cccc2C1=O [Plumbagin] | – | – | – | – | – | 2.0 ± 0% of untreated control | 21.4 ± 17.5 | 49 ± 1.5% of untreated control | – | –
CO/C1=C\C(C)=C\[C@@H](C)[C@@H](O)[C@@H](C)C/C(C)=C/C=C/[C@H](OC)[C@@H]([C@@H](C)[C@@H](O)[C@H](C)[C@@]2(O)C[C@@H](O)[C@H](C)[C@@H](C(C)C)O2)OC1=O [Bafilomycin A1] | – | 55.7 ± 9.5% of untreated control | – | 36 ± 6.1% of untreated control | – | – | 0 | – | – | –
CC(C)C[C@@H](C=O)NC(=O)[C@H](CC(C)C)NC(=O)[C@H](CC(C)C)NC(=O)OCc1ccccc1 [MG132] (Cbz-Leu-Leu-Leu-aldehyde) | – | – | – | 31 ± 5.7% of untreated control | – | 10.7 ± 2.8% of untreated control | 9.5 ± 7.1 | – | – | –
COc1ccc(C2CNC(=O)C2)cc1OC1CCCC1 (stereo not drawn) [Rolipram] | – | – | – | – | – | 91.0 ± 3.2% of untreated control | 215 ± 74.8 | 127 ± 12.1% of untreated control | – | –
COCCOC(=O)C1=C(C)NC(C)=C(C(=O)OC(C)C)C1c1cccc([N+](=O)[O-])c1 (stereo not drawn) [Nimodipine] | – | – | – | 41 ± 8.4% of untreated control | – | 92.0 ± 1.5% of untreated control | 26.9 ± 13.6 | – | – | –
CCCCC[C@H](O)CC(=O)CCc1ccc(O)c(OC)c1 [Compound 6-Gingerol, 6-Gingerol] | – | – | – | 55 ± 11% of untreated control | – | 100.0 ± 2.5% of untreated control | 109 ± 9.3 | – | – | –
